# Experimental data as given in patent US20250320290A1, “METHODS FOR TRIGGERING SAFETY KILLING […] USING A CD47-SIRPalpha BLOCKADE AGENT” (Sana Biotechnology, Inc., priority 2020, published 2025).
# “Also recorded” adds a separate entry of the source.
# Legend:
# [1] = intravenous, cited from earlier work
# [2] = tested on: human HIP iPSCs (HSVTk clone 1-B10); test: HsVtk kill switch: s.c. HIP-HsVtk iPSCs in NSG mice; assay type: in vivo
# Description: (§1) Subcutaneous. Healthy male NSG mice were anesthetized via isoflurane inhalation anesthesia in a knockdown chamber. The anesthetized mice were removed from the chamber and placed in a supine position. The injection site (right inguinal area) was sprayed with 70% EtOH. Cells were injected subcutaneously proximal to the inguinal region.
# (§2) Mice were anesthetized via isoflurane inhalation anesthesia and injected intraperitoneally (IP) with 250 μl luciferin (45.45 mg/ml). The mice were then positioned in a nose cone in the bioluminescence chamber (anesthesia was maintained at 1.5% with 500 ml oxygen/min). The mice were imaged for 180 seconds. A circle was drawn around the region of interest (ROI) giving a reading of photons/sec of emitted light.
# Human HIP iPSCs (HSVTk clone 1-B10) were injected subcutaneously into Group 1 NSG mice. Ganciclovir LD (50 mg/kg) treatment was performed daily intraperitoneally. […] Mice were checked during a 44D follow up. Group 1 mice treatment was as follows: 1×10^6 hiPSCs HIP HSVtk clone 1-B10 luc+ in diluted MG, S.C.; treatment was 50 mg/kg/day Ganciclovir, IP (DO).
# [3] = tested on: human HIP iPSCs (clone 15; no kill switch); test: s.c. HIP iPSCs without kill switch in NSG mice treated with pro-drug; assay type: in vivo
# Description: as §1, §2
# Human HIP iPSCs (clone 15; no kill switch) were injected subcutaneously into Group 6 NSG mice. Flucytosine HD (500 mg/kg) treatment was administered daily intraperitoneally. As shown in FIG. 81A-B, human HIP iPSC survival appeared to be impaired by flucytosine HD although cells had no kill switch. The group was expanded for data validation (FIG. 81C-D and FIG. 81E-F). […]
# Human HIP iPSCs (clone 15; no kill switch) were injected subcutaneously into Group 6 NSG mice. Ganciclovir HD (75 mg/kg) treatment was administered daily intraperitoneally starting Day 0. […]
# [4] = tested on: human HIP iPSCs (CyD clone 2G11); test: Cytosine deaminase kill switch: s.c. HIP-CyD iPSCs in NSG mice; assay type: in vivo
# Description: as §1, §2
# Human HIP iPSCs (CyD clone 2G11) were injected subcutaneously into Group 1 NSG mice. Flucytosine LD (200 mg/kg) treatment was administered daily intraperitoneally. […] Group 1 mice treatment was as follows: 1×10^6 hiPSC HIP CyD clone 2G11 in diluted MG, S.C.; treatment=200 mg/kg/day Flucytosine, IP (DO).
# [5] = tested on: human HIP iPSCs; test: Subcutaneous human HIP iPSCs in NSG mice with adoptive transfer of human NK cells, BLI; assay type: in vivo
# Description: as §1
# The mice were then positioned in a nose cone in the bioluminescence chamber (anesthesia was maintained at 1.5% with 500 ml oxygen/min). The mice were imaged for 180 seconds. A circle was drawn around the region of interest (ROI) giving a reading of photons/sec of emitted light.
# IP dosing. The antibody (100 μl) was injected into the peritoneal cavity from the ventral surface by piercing the skin and muscle layers.
# SC dosing. Mice were anesthetized via isoflurane inhalation anesthesia and placed in a supine position. The injection site (right inguinal area) was sprayed with 70% EtOH and the antibody (100 μl) was injected into the area of the implanted cells.
# [6] = tested on: mock transfected T cells; test: Innate killing by real-time cell analysis, mock transfected T cells; assay type: cell-based, human; conditions: in the presence of the antibody
# [7] = tested on: human HIP iPSCs; test: In vitro killing of human HIP iPSCs by human NK cells and macrophages with anti-CD47 antibody; assay type: cell-based; conditions: 100 μg/ml antibody
# [8] = tested on: HIP CD19CAR-T cells (B2M−/−, CIITA−/−, TRAC−/−, CD19-specific CAR-CD47 T cells); test: Innate killing (NK cells, macrophages) by real-time cell analysis, HIP CAR-T cells; assay type: cell-based, human; conditions: pretreated with CD47 blocking antibody, E:T 1:1
# Description: Briefly, T-cells were plated in CD19^+ tumor cell specific media. After cell index value reached 0.7, human NK cells or human macrophages were added with an E:T ratio of 1:1 with human IL-2 for NK cells and without IL-2 for macrophages. […] Data were standardized and analyzed with the real-time cell analysis instrument software.
# After about 48 hours, T-cells were collected and stained with components of a live/dead cell viability staining assay. Briefly, cells were stained with calcein AM and ethidium homodimer-1 according to the manufacturer's protocol. The analysis was performed by flow cytometry and the results were expressed as percentage of dead cells.
molecule,measurement,setting,value
TTI-621: fusion protein of N-terminal V domain of human SIRPα fused to human IgG1 Fc region (SEQ ID NO:133),maximum tolerated dose (MTD),"[1]; monotherapy, relapsed/refractory hematologic malignancies and selected solid tumors",0.2 mg/kg
same,tolerability,[1]; phase 1,well tolerated
Nc1nc(O)c2ncn(COC(CO)CO)c2n1 [Ganciclovir],time to killing of HIP-HsVtk iPSCs,[2]; HD 75 mg/kg daily intraperitoneally from D0,12 to 16 days
same,time to killing of HIP-HsVtk iPSCs after start of treatment,[2]; HD 75 mg/kg daily intraperitoneally from Day 13,≤ 7 days
same,time to killing of HIP-HsVtk iPSCs,[2]; LD 50 mg/kg daily intraperitoneally from D0,12 to 24 days
same,time to killing of HIP-HsVtk iPSCs after start of treatment,[2]; LD 50 mg/kg daily intraperitoneally from Day 13,≤ 7 days
same,benefit of HD,[2]; treatment from D0,slightly beneficial
same,benefit of HD compared to LD,[2]; treatment from Day 13,No obvious benefit
same,impact on HIP iPSCs without kill switch,[3]; Ganciclovir HD 75 mg/kg daily intraperitoneally from Day 0,no killing; also recorded: no impact
Nc1[nH]c(=O)ncc1F [Flucytosine],time to killing of HIP-CyD iPSCs,[4]; HD 500 mg/kg daily intraperitoneally from D0,16 to 32 days
same,time to killing of HIP-CyD iPSCs after starting treatment,[4]; HD 500 mg/kg daily intraperitoneally from Day 13,3 to 11 days
same,time to killing of HIP-CyD iPSCs,[4]; LD 200 mg/kg daily intraperitoneally from D0,16 to 44 days
same,time to killing of HIP-CyD iPSCs after starting treatment,[4]; LD 200 mg/kg daily intraperitoneally from Day 13,3 to 11 days
same,benefit of HD as compared to LD,[4]; treatment from D0,No major benefit
same,benefit of HD compared to LD,[4]; treatment from Day 13,No benefit
same,survival of HIP iPSCs without kill switch,[3]; Flucytosine HD 500 mg/kg daily intraperitoneally,impaired
"magrolimab: anti-CD47 antibody magrolimab (Hu5F9-G4) (Forty Seven, Inc.; Gilead Sciences, Inc.) (antibody, chains of the INN, looked up, V domains shown) VH: QVQLVQSGAEVKKPGASVKVSCKASGYTFTNYNMHWVRQAPGQRLEWMGTIYPGNDDTSYNQKFKDRVTITADTSASTAYMELSSLRSEDTAVYYCARGGYRAMDYWGQGTLVTVSS VL: DIVMTQSPLSLPVTPGEPASISCRSSQSIVYSNGNTYLGWYLQKPGQSPQLLIYKVSNRFSGVPDRFSGSGSGTDFTLKISRVEAEDVGVYYCFQGSHVPYTFGQGTKLEIK",killing of HIP iPSCs,"[5]; magrolimab D0-D10, 5×10^4 iPSCs, 1×10^6 NK cells",killing of HIP iPSCs
same,re-appearance of iPSCs,"[5]; magrolimab stopped after D10, 6-month follow up",didn't re-appear
same,killing of mock transfected T cells by NK cell and macrophages,[6],not killed
same,killing of human HIP iPSCs by human NK cells,[7],killing
same,killing of human HIP iPSCs by human macrophages,[7],killing
same,killing of HIP CAR-T cells by macrophages and NK cells on CD47 blocking,[8],susceptible to macrophage and NK cell killing
same,killing of HIP CAR-T cells by macrophages and NK cells on CD47 blocking,[8]; listed as macrolimab,induced killing
